Article PMC5981210, “Molecular recognition of wood polyphenols by phase II detoxification enzymes of the white rot Trametes versicolor” (Scientific Reports, 2018)
Blank lines part the entries; values can stand above or below the compound they belong to.

Key:
[1] = target: T1, TvGSTO6S (Trametes versicolor, UniProt A0A384E158); assay: thermal shift assay, SYPRO Orange; format: binding; conditions: 100 µM ligand, 10 µM protein, Tris-HCl pH 8
T1 construct: produced in E. coli Rosetta2 DE3 pLysS; homodimer; serine-type omega GST
T1 sequence (A0A384E158 1-246): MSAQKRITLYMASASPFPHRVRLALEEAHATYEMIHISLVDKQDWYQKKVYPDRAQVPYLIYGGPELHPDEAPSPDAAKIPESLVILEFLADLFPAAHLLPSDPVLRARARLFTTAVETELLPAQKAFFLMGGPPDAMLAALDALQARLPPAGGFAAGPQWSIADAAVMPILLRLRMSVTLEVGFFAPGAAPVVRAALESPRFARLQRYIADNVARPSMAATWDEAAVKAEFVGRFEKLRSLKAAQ
Description: thermal shift assay, SYPRO Orange on TvGSTO6S

[2] = target: T2, TvGSTO1S (Trametes versicolor, UniProt R7S9J3); assay: thermal shift assay, SYPRO Orange; format: binding; conditions: 100 µM ligand, 10 µM protein, Tris-HCl pH 8
T2 construct: gene TRAVEDRAFT_75639; produced in E. coli Rosetta2 DE3 pLysS
T2 sequence (R7S9J3 1-256): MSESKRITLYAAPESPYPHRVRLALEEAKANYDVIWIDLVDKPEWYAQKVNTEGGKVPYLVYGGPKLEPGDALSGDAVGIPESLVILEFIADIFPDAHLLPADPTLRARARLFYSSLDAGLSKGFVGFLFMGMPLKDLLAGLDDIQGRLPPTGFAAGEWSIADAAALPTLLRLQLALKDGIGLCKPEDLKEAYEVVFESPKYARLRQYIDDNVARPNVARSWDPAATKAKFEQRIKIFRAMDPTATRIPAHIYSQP
Description: thermal shift assay, SYPRO Orange on TvGSTO1S

[3] = target: T3, TvGSTO2S (Trametes versicolor, UniProt A0A452CSY5); assay: thermal shift assay, SYPRO Orange; format: binding; conditions: 100 µM ligand, 10 µM protein, Tris-HCl pH 8
T3 construct: gene TRAPUB_12770; produced in E. coli Rosetta2 DE3 pLysS
T3 sequence (A0A452CSY5 1-239): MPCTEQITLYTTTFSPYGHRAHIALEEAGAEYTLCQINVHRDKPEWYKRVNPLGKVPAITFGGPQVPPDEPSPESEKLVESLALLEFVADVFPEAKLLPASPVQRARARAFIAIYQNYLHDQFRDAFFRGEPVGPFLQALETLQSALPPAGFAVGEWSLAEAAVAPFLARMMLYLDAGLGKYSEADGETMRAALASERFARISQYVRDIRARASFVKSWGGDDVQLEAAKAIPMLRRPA
Description: thermal shift assay, SYPRO Orange on TvGSTO2S

[4] = target: T4, TvGSTO5S (Trametes versicolor, UniProt R7S6M8); assay: thermal shift assay, SYPRO Orange; format: binding; conditions: 100 µM ligand, 10 µM protein, Tris-HCl pH 8
T4 construct: gene TRAVEDRAFT_54358; produced in E. coli Rosetta2 DE3 pLysS
T4 sequence (R7S6M8 1-241): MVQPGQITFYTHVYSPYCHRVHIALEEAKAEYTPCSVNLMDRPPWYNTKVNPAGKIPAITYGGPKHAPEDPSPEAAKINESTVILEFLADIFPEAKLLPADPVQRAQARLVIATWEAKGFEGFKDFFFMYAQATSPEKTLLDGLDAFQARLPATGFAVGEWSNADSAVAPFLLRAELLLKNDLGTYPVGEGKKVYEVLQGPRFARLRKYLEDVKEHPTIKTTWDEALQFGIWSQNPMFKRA
Description: thermal shift assay, SYPRO Orange on TvGSTO5S

[5] = target: T5, TvGSTO3S (Trametes versicolor, UniProt A0A384E145); assay: inhibition of GSH-transferase activity, mixed model fit; format: biochemical; conditions: PEITC 25–300 µM as substrate, 1 mM GSH, 100 mM phosphate pH 6.4, 25 °C
T5 construct: produced in E. coli Rosetta2 DE3 pLysS; homodimer; serine-type omega GST
T5 sequence (A0A384E145 1-240): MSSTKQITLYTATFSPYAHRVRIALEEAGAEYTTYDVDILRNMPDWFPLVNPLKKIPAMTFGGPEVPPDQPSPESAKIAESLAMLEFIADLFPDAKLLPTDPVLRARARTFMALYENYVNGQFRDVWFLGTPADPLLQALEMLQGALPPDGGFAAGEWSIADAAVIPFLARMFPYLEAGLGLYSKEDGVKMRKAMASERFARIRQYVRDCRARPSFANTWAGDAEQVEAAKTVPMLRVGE

[6] = target: Trametes versicolor glutathione transferase Omega 3S (TvGSTO3S) (Trametes versicolor); assay: crystal structure; TvGSTO3S (13 mg/mL) crystallised by microbatch under oil at 278 K; 30% (w/v) PEG 400, 0.2 M calcium acetate, 0.1 M acetate buffer pH 4.5; apo and ligand complexes; homodimer in the crystal
[7] = target: Trametes versicolor glutathione transferase Omega 6S (TvGSTO6S) (Trametes versicolor); assay: crystal structure; TvGSTO6S (26 mg/mL) crystallised by hanging drop with seeding; 25% (w/v) PEG 1500, 0.1 M MMT buffer pH 6.5; apo and naringenin complex ('dry soaking'); homodimer in the crystal

Compound: O=C(c1ccccc1)c1ccc(O)c(O)c1O [2,3,4-Trihydroxy benzophenone]
TvGSTO6S [1]: 4.15 °C
TvGSTO2S [3]: 2.92 °C
TvGSTO5S [4]: -12.89 °C

Compound: O=C(c1ccc(O)cc1)c1ccc(O)cc1O [2,4,4′-Trihydroxy benzophenone]
TvGSTO1S [2]: 2.74 °C

Compound: COc1c(O)cc(O)c2c(=O)cc(-c3ccccc3)oc12 [wogonin]
Ki [5]: 2.89 ± 1.24 µM

Compound: Trametes versicolor glutathione transferase Omega 3S (TvGSTO3S) (enzyme)
stoichiometry N [6]: 2

More lines, now with the values ahead:

TvGSTO6S [1]: 3.40 °C
TvGSTO1S [2]: 3.74 °C
Compound: O=C(c1ccc(O)cc1O)c1ccc(O)cc1O [2,2′,4,4′-Tetrahydroxy benzophenone]

TvGSTO2S [3]: 2.56 °C
Compound: O=C(c1ccccc1)c1ccc(O)cc1O [2,4-Dihydroxy benzophenone]

stoichiometry N [7]: 2
Compound: Trametes versicolor glutathione transferase Omega 6S (TvGSTO6S) (enzyme)
